The values that follow come from PMC8269059, “Glycyrrhizin Derivatives Suppress Cancer Chemoresistance by Inhibiting Progesterone Receptor Membrane Component 1” (Cancers, 2021).

In assay [1] the target is T1, apo-PGRMC1 (Homo sapiens, UniProt O00264).
T1 construct: human PGRMC1 intracellular domain residues 43-195; GST (N, cleaved yes); made in house; host or cells: E. coli BL21 (DE3)
In words: ITC binding to apo-PGRMC1. To be noted: apo-monomer form. From the text:
Bacterial expression vectors pGEX-PGRMC1 (human PGRMC1 intracellular domain residues 43-195) and mammalian FLAG-tagged expression vector pCMV-FLAG-PGRMC1 (full-length) were constructed as described previously. Expression vectors for PGRMC1 point mutants were generated by site-directed mutagenesis with PCR. For construction of HMGB1 expression vector, human HMGB1 full-length cDNA was cloned from cDNA library of HCT116 cells using the primers (Forward: 5′-[…]-3′, Reverse: 5′-[…]-[…]-3′), digested with Bam HI and Sal I, and then ligated into pGEX6P1.
Expression vectors (pGEX-PGRMC1 (residues 43-195) or pGEX-HMGB1) were transformed into BL21 (DE3) competent E. coli cells, and the cells incubated in LB medium with ampicillin at 37 °C until the OD600 reached 0.8. Protein expression was induced by adding 1 mM isopropyl-β-thiogalactopyranoside (IPTG) and incubating at 37 °C for 4 h. […]
ITC experiments were performed at 298 K with ITC-Buffer (50 mM phosphate [pH 7.0]) using a MicroCal iTC200 (Malvern Panalytical, Malvern, UK). […] Binding isotherms were analyzed using SEDPHAT [35]. The binding of AG205 to apo- or heme-PGRMC1 (100 μM) was analyzed using a concentration of 3 mM containing 1% DMSO. […]

For assay [2], the target named is T2, heme-dimerized PGRMC1 (Homo sapiens, UniProt O00264).
T2 construct: human PGRMC1 intracellular domain residues 43-195; GST (N, cleaved yes); made in house; host or cells: E. coli BL21 (DE3)
T2 sequence (O00264 43-195): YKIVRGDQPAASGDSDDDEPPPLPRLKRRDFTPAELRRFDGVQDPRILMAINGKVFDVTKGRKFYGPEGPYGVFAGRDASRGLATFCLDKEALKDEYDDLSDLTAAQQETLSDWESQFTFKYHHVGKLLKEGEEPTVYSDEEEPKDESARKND
In words: ITC binding to heme-dimerized PGRMC1. To be noted: ITC; for KD / Kd: 298 K, 50 mM phosphate pH 7.0, heme-dimerized PGRMC1 (WT); for TΔS / ΔG / ΔH: heme-dimerized PGRMC1 (WT).

Assay [3] concerns HCT116 cells. In words: Chemosensitivity MTT assay in HCT116 cells. Type of assay: cell-based, human. To be noted: for Anti-proliferative / anti-cancer effect with anti-cancer agents: HCT116, MTT, with erlotinib or CDDP, compared with GL; for IC50: Homo sapiens, HCT-116, HCT116 cell viability, MTT.
Assay [4] concerns HCT116 cells xenograft. Description: HCT116 xenograft in nude mice. Type of assay: in vivo, mouse. As to conditions: i.p. twice a week, 22 days, CDDP 2 mg/kg, GL 400 mg/kg, vs control. As to the method:
All protocols for animal experiments in this study were approved by the Experimental Animal Committee of Keio University School of Medicine (approval number: 08024-(13), approval date: 30 September 2020). HCT116 cells (2 × 10^6 cells/mouse) with half of Matrigel (Corning, NY, USA) were transplanted subcutaneously into the flank of 7-week-old nude mice. Four days after the transplantation, tumor size was measured in three dimensions with calipers and grouped by tumor volume. CDDP (2 mg/kg), GL (400 mg/kg), or GlucoGL (100 mg/kg) were administered to the mice intraperitoneally, and the tumor volume was measured twice a week for 22 days.

For assay [5], the system named is GFP-fused PGRMC1 protein partially purified from granulosa cells. As to conditions: competitive binding with labeled-progesterone; cited from earlier work.
The mark [6] stands for this setting: with CDDP (10 µM), read-out: IC50 CDDP.
Setting [7] is: with erlotinib (20 µM), read-out: IC50 Erlotinib.

SMILES strings stand for the structures. “And” between values parts separate entries of the source, which are not always exact repeats. Identical values can stand only once. “Also recorded” adds a separate entry of the source. Like-named read-outs stand apart in the source and are kept apart here.

T1 sequence (O00264 43-195): as above

Take `Cc1ccc2c(c1)[C@H]1CN(C)CC[C@H]1N2C(=O)CSc1nnnn1-c1ccc(Cl)cc1` [AG205]: in assay [1], the “Binding to apo-PGRMC1” value was “no binding activity; also recorded: did not observe AG205 binding”. Also, in assay [2], the KD result is “no binding activity; also recorded: did not observe AG205 binding”.

As to `CC1(C(=O)O)CCC2(C)CCC3(C)C(=CC(=O)C4C5(C)CCC(OC6OC(C(=O)O)C(O)C(O)C6OC6OCC(O)(CO)C6O)C(C)(C)C5CCC43C)C2C1` (centres unmarked) [Apioglycyrrhizin], in assay [2], the Kd (in general, the concentration at which binding is half-saturated) was 4.85 µM; the TΔS is 6.18 K·kcal/mol; the ΔG was -7.26 kcal/mol; the ΔH was -1.08 kcal/mol. Moreover, the “Anti-proliferative / anti-cancer effect with anti-cancer agents” value (shortened to “Anti-proliferative / anti-cancer effect”) in assay [3] was “potent anti-cancer effects”. In addition, the IC50 – broadly, the concentration at which inhibition is half-maximal – in assay [3] (setting [6]) came to 35.1 µM. Besides, the IC50 in assay [3] (setting [7]) came to 62.5 µM.

With `CC1(C(=O)O)CCC2(C)CCC3(C)C(=CC(=O)C4C5(C)CCC(OC6OC(C(=O)O)C(O)C(O)C6OC6OCC(O)C(O)C6O)C(C)(C)C5CCC43C)C2C1` (centres unmarked) [Araboglycyrrhizin], in assay [2], the Kd is 8.46 µM, the TΔS is on record as 5.90 K·kcal/mol, the ΔG is -6.93 kcal/mol and the ΔH was -1.03 kcal/mol. The “Anti-proliferative / anti-cancer effect” value in assay [3] was “potent anti-cancer effects”. Also, the IC50 in assay [3] (setting [6]) was found to be 26.6 µM. In addition, in assay [3] (setting [7]), the IC50 is 35.3 µM.

Consider `[NH2][Pt]([NH2])([Cl])[Cl]` [CDDP, cisplatin], for which the “Tumor volume, administered individually” value in assay [4] is given as “no differences in tumor volume”.

Consider `CC1(C)[C@@H](OC(=O)CCC(=O)O)CC[C@]2(C)[C@H]3C(=O)C=C4[C@@H]5C[C@@](C)(C(=O)O)CC[C@]5(C)CC[C@@]4(C)[C@]3(C)CC[C@@H]12` [Carbenoxolone], for which, in assay [2], the KD result was “No Binding”. The “Anti-proliferative / anti-cancer effect” value in assay [3] is recorded as “weaker anti-proliferative effects”.

Take `CC1(C)[C@@H](O)CC[C@]2(C)[C@H]3C(=O)C=C4[C@@H]5C[C@@](C)(C(=O)O)CC[C@]5(C)CC[C@@]4(C)[C@]3(C)CC[C@@H]12` [Glycyrrhetinic acid (GA), Glycyrrhetinic acid]: the KD result in assay [2] is listed as “Weak Binding”; in assay [2] (listed as GA), “did not detect significant binding”.

In assay [2], `CC1(C(=O)O)CCC2(C)CCC3(C)C(=CC(=O)C4C5(C)CCC(OC6OC(C(=O)O)C(O)C(O)C6O)C(C)(C)C5CCC43C)C2C1` (centres unmarked) [Glycyrrhetinic acid-3-O-mono-glucuronide] yielded a Kd of 9.55 µM, a TΔS of 6.23 K·kcal/mol, a ΔG of -6.85 kcal/mol and a ΔH of -0.62 kcal/mol. For the same compound, in assay [3] (setting [6]), the IC50 is 41.2 µM. For the same compound, the IC50 in assay [3] (setting [7]) was found to be 50.5 µM.

In the case of `CC1(C(=O)O)CCC2(C)CCC3(C)C(=CC(=O)C4C5(C)CCC(OC6OC(C(=O)O)C(O)C(O)C6OC6OC(C(=O)O)C(O)C(O)C6O)C(C)(CO)C5CCC43C)C2C1` (centres unmarked) [Licorice-saponin G2], in assay [2], the Kd was determined as 128 µM, the TΔS was found to be 4.08 K·kcal/mol, the ΔG was -5.31 kcal/mol and the ΔH is -1.23 kcal/mol. Also, the “Anti-proliferative / anti-cancer effect” value in assay [3] is “weaker anti-proliferative effects”.

For `CC1(C(=O)O)CCC2(C)CCC3(C)C(=CC(=O)C4C5(C)CCC(OC6OC(C(=O)O)C(O)C(O)C6OC6OC(C(=O)O)C(O)C(O)C6O)C(C)(C)C5CCC43C)C2C1` (centres unmarked) [Licorice-saponin H2], the KD entry in assay [2] was “No Binding”. Moreover, the “Anti-proliferative / anti-cancer effect” value in assay [3] is “weaker anti-proliferative effects”.

As to `CC12CCC3(C)C(=CC(=O)C4C5(C)CCC(OC6OC(C(=O)O)C(O)C(O)C6OC6OC(C(=O)O)C(O)C(O)C6O)C(C)(C)C5CCC43C)C1CC(C)(C(=O)O)C(O)C2` (centres unmarked) [Macedonoside A], the KD result in assay [2] is recorded as “No Binding”. Moreover, in assay [3], the “Anti-proliferative / anti-cancer effect” value is “weaker anti-proliferative effects”.

`CC(=O)[C@H]1CC[C@H]2[C@@H]3CCC4=CC(=O)CC[C@]4(C)[C@H]3CC[C@]12C` [Progesterone]: in assay [2], the Kd was 815 µM and 816 µM; the ΔG is -4.22 kcal/mol; the ΔH was -23.26 kcal/mol. Moreover, the Kd in assay [5] was 0.035 µM.

In assay [2], `CC1OC(OC2C(OC3C(OC4CCC5(C)C(CCC6(C)C5C(=O)C=C5C7CC(C)(C(=O)O)CCC7(C)CCC56C)C4(C)C)OC(C(=O)O)C(O)C3O)OC(CO)C(O)C2O)C(O)C(O)C1O` (centres unmarked) [Rhaoglucoglycyrrhizin] gave a Kd of 1.08 µM, a TΔS of 6.08 K·kcal/mol, a ΔG of -8.15 kcal/mol and a ΔH of -2.07 kcal/mol. The “Anti-proliferative / anti-cancer effect” value in assay [3] is recorded as “potent anti-cancer effects”. For the same compound, in assay [3] (setting [6]), the IC50 was found to be 17.2 µM. Moreover, the IC50 in assay [3] (setting [7]) is 19.1 µM.
